How the values were obtained:
[1] = Toxicity (LD50), mouse; details: in vivo
[2] = test system: human ACD (acid chitorate dextrose) preserved blood; assay: 2,3-DPG level after addition of naphthoquinone to preserved blood (Keitt's method); assay type: cell-based; details: for Blood level of 2,3-DPG: One hundred PM naphthoquinone in 1 ml human ACD preserved blood, 60 min at 37°C, control 294; for Concentrations of 2,3-DPG: preserved blood, mean ± standard error, n=30
[3] = Toxicity (LD50), rat; details: in vivo, po
[4] = test system: fresh blood taken from a patient with an ischemic disease; assay: 2,3-DPG level after addition of vitamin K3 to fresh blood of patients with an ischemic disease; assay type: cell-based, human; details: 100 µM
Protocol: One hundred PM of each naphthoquinone (use 10 mM naphthoquinone dissolved in 50 % ethanol solution) was added to 1 ml of human ACD (acid chitorate dextrose) preserved blood (of which 2,3-DPG concentration had decreased to 1/20 of the normal level). After incubation for 60 min at 37°C, the reaction was stopped by addition of perchloric acid. According to Keitt's method (J. Lab. Clin. Med. 77, 470-475 (1971)), thereafter, 2,3-DPG was extracted and quantified.
One hundred µM of vitamin K3 was added in 1 ml of fresh blood taken from a patient with an ischemic disease, and the concentration of 2,3-DPG was determined in the same manner as in Example 1.

## O=C1C=C(S(=O)(=O)O)c2ccccc2C1=O [1,2-Naphthoquinone-4-sulfonic acid, 1,2-naphthoquinone-4-sulfonic acid]
[1]; ip
  LD50: 625 mg/kg
[2]
  Blood level of 2,3-DPG: 3923 n moles/ml RBC

## O=C1C=CC(=O)c2ccccc21 [1,4-Naphthoquinone, 1,4-naphthoquinone]
[3]
  LD50: 190 mg/kg
[2]
  Blood level of 2,3-DPG: 3554 n moles/ml RBC

## O=C1C(Cl)=C(Cl)C(=O)c2ccccc21 [2,3-Dichloro-1,4-naphthoquinone, 2,3-dichloro-1,4-naphthoquinone]
[2]
  Blood level of 2,3-DPG: 3971 n moles/ml RBC

## CC1=CC(=O)c2ccccc2C1=O [Vitamin K3, 2-methyl-l,4-naphthoqunone]
[4]; normal subjects 4931± 53
  blood levels of 2,3-DPG in the patients with ischemic diseases (in words): recovered to the normal level or higher levels
[4]; Buerger's Disease, n=12, no addition 4253±287
  Concentrations of 2,3-DPG: 5490±117(12) n moles/ml RBC
[4]; Closed arteriosclerosis, n=15, no addition 4796±365
  Concentrations of 2,3-DPG: 5624±266(15) n moles/ml RBC
[1]; po
  LD50: 500 mg/kg
[2]
  Blood level of 2,3-DPG: 3660 n moles/ml RBC
[2]; dose 10 µM, dose 0: 227 ± 15
  Concentrations of 2,3-DPG: 1124 ± 107 (30) n moles/ml RBC
[2]; dose 100 µM
  Concentrations of 2,3-DPG: 3256 ± 244 (30) n moles/ml RBC
[2]; dose 1000 µM
  Concentrations of 2,3-DPG: 5144 ± 253 (30) n moles/ml RBC
[2]; dose 10000 µM
  Concentrations of 2,3-DPG: 5569 ± 311 (30) n moles/ml RBC

Source: patent publication EP0146338A2, “A blood accelerator 2, 3-diphosphoglyceric acid” (SHIRATORI PHARMACEUTICAL CO. LTD., priority 1983, dated 1985)
